Measured values from ChEMBL document CHEMBL5365398, “Structure-activity relationship study of central pyridine-derived TYK2 JH2 inhibitors: Optimization of the PK profile through C4' and C6 variations” (Bioorg Med Chem Lett, 2023).

Key:
[1] = in vitro; conditions: human, liver microsomes
[2] = in vitro; conditions: rat, liver microsomes
[3] = in vitro; conditions: mouse, liver microsomes
[4] = in vitro; conditions: human, Caco-2
[5] = in vitro; conditions: human, liver microsomes; remark: listed apart in the source
[6] = in vivo; conditions: mouse, po, 10 mg/kg
[7] = in vivo; conditions: mouse, po, 10 mg/kg; remark: listed apart in the source
[8] = in vitro; conditions: mouse, liver microsomes; remark: listed apart in the source
[9] = in vivo; conditions: mouse, po, 10 mg/kg; remark: listed apart in the source
[10] = in vitro; conditions: rat, liver microsomes; remark: listed apart in the source

| SMILES | remaining at 10 min, 0.5 µM [1] [%] | remaining at 10 min, 0.5 µM [2] [%] | remaining at 10 min, 0.5 µM [3] [%] | Papp A→B [4] [×10⁻⁶ cm/s] | half-life [5] [h] | Cmax [6] [µM] | AUC(0-t) [7] [µM·h] | half-life [8] [h] | bioavailability [9] [%] | half-life [10] [h] |
| --- | --- | --- | --- | --- | --- | --- | --- | --- | --- | --- |
| [2H]C([2H])([2H])NC(=O)c1nnc(Nc2cccc(OC)n2)cc1Nc1nccc(-c2ncn(C)n2)c1OC | 88 | 71 | 65 |  |  |  |  |  |  |  |
| [2H]C([2H])([2H])NC(=O)c1nnc(NC(=O)C2CC2)cc1Nc1nccc(-c2ncc(F)cn2)c1OC | 89 | 100 | 100 | 34.5 |  |  |  |  |  |  |
| [2H]C([2H])([2H])NC(=O)c1nnc(Nc2ccc(C(C)(C)O)cn2)cc1Nc1nccc(-c2ncc(F)cn2)c1OC | 100 | 100 | 83 | 9.7 | > 2 | 15.2 | 34.2 | > 2 | 94 | > 2 |
